Assay results from EPA's ToxRefDB 2.

Key:
[1] = test system: dog; settings: Sub-acute repeat dose toxicity; beagle; Oral; Gavage/Intubation; dose end: 5 day; group: systemic; systemic / in life observation / clinical signs / abnormal feces + systemic / in life observation / clinical signs / emesis
[2] = test system: dog; settings: Sub-acute repeat dose toxicity, beagle, Oral, Gavage/Intubation, dose end: 5 day, group: systemic
[3] = test system: rabbit; settings: Sub-acute repeat dose toxicity; new zealand white; Oral; Gavage/Intubation; dose end: 5 day; group: systemic; systemic / in life observation / body weight / body weight + systemic / in life observation / clinical signs / altered breathing rate + …
[4] = test system: dog; settings: Subchronic oral toxicity in nonrodent, beagle, Gavage/Intubation, dose end: 90 day, group: systemic
[5] = test system: rat; settings: Sub-acute repeat dose toxicity; sprague dawley; Oral; Gavage/Intubation; dose end: 9 day; group: systemic; systemic / in life observation / body weight / body weight gain + systemic / in life observation / food consumption / food consumption
[6] = test system: dog; settings: Sub-acute repeat dose toxicity; beagle; Oral; Gavage/Intubation; dose end: 29 day; group: systemic; systemic / clinical chemistry / hepatic mixed function oxidase (mfo) assay / hepatic mixed function oxidase (mfo) assay + systemic / in life…
[7] = test system: rat; settings: Sub-acute repeat dose toxicity, sprague dawley, Oral, Gavage/Intubation, dose end: 29 day, group: systemic
[8] = test system: rat; settings: Combined chronic toxicity/carcinogenicity, fischer, Oral, Gavage/Intubation, dose end: 103 week, group: systemic
[9] = test system: mouse; settings: Combined chronic toxicity/carcinogenicity, b6c3f1, Oral, Gavage/Intubation, dose end: 103 week, group: systemic
[10] = test system: rat; settings: Prenatal developmental toxicity study; sprague dawley; Oral; Gavage/Intubation; dose end: 19 GD; group: maternal; systemic / in life observation / body weight / body weight gain + systemic / in life observation / food consumption / food consumption + …
[11] = test system: rat; settings: Peri- and post-natal toxicity study (Segment III), sprague dawley, Oral, Gavage/Intubation, dose end: 40 PND
[12] = systemic / in life observation / clinical signs / abnormal feces
[13] = systemic / in life observation / clinical signs / abnormal feces + systemic / in life observation / clinical signs / emesis
[14] = systemic / clinical chemistry / cholesterol / cholesterol + systemic / organ weight / liver / absolute + systemic / pathology microscopic / …
[15] = systemic / in life observation / clinical signs / abnormal feces + systemic / organ weight / liver / absolute + systemic / pathology …
[16] = systemic / clinical chemistry / 5' nucleotidase / 5' nucleotidase + systemic / clinical chemistry / albumin / albumin + systemic / clinical …
[17] = systemic / pathology microscopic / blood / leukemia mononuclear + systemic / in life observation / body weight / body weight
[18] = systemic / pathology microscopic / liver / vacuolization cytoplasmic
[19] = systemic / pathology microscopic / liver / vacuolization cytoplasmic + systemic / in life observation / body weight / body weight
[20] = group: maternal, reproductive / reproductive performance / estrous cycle / corpora lutea
[21] = group: parental, systemic / organ weight / liver / absolute + systemic / organ weight / thyroid gland / absolute + systemic / pathology microscopic / ovary…
[22] = group: parental, systemic / organ weight / liver / absolute + systemic / pathology microscopic / ovary / follicle count + systemic / pathology microscopic / …

NC(=O)N(O)[C@@H]1C=C[C@H](Oc2cccc(Oc3ccc(F)cc3)c2)C1
LEL [1]: 250 mg/kg/day | LOAEL [1]: > 500 mg/kg/day | NEL [1]: < 250 mg/kg/day | NOAEL [1]: ≥ 500 mg/kg/day | LEL [2, 12]: 5 mg/kg/day | NEL [2, 12]: < 5 mg/kg/day | LOAEL [2, 13]: > 125 mg/kg/day | NOAEL [2, 13]: ≥ 125 mg/kg/day | LEL [3]: 400 mg/kg/day | LOAEL [3]: > 400 mg/kg/day | NEL [3]: 40 mg/kg/day | NOAEL [3]: ≥ 400 mg/kg/day | NEL [4, 14]: 5 mg/kg/day | LOAEL [4, 15]: > 125 mg/kg/day | NOAEL [4, 15]: ≥ 125 mg/kg/day | LEL ([4]; systemic / organ weight / liver / absolute): 25 mg/kg/day | LEL [5]: 400 mg/kg/day | LOAEL [5]: > 400 mg/kg/day | NEL [5]: 200 mg/kg/day | NOAEL [5]: ≥ 400 mg/kg/day | LEL [6]: 125 mg/kg/day | LOAEL [6]: > 125 mg/kg/day | NEL [6]: 25 mg/kg/day | NOAEL [6]: ≥ 125 mg/kg/day | LOAEL [7, 16]: > 400 mg/kg/day | NEL [7, 16]: 10 mg/kg/day | NOAEL [7, 16]: ≥ 400 mg/kg/day | LEL [7, 14]: 40 mg/kg/day

C=CCN=C=S [Allyl isothiocyanate]
LOAEL ([8]; systemic / in life observation / body weight / body weight): 25 mg/kg/day | NOAEL ([8]; systemic / in life observation / body weight / body weight + systemic / pathology microscopic / blood / leukemia mononuclear + systemic / …): 12 mg/kg/day | LEL [8, 17]: 12 mg/kg/day | NEL [8, 17]: < 12 mg/kg/day | LEL [9, 18]: 12 mg/kg/day | NEL [9, 18]: < 12 mg/kg/day | LOAEL [9, 19]: > 25 mg/kg/day | NOAEL [9, 19]: ≥ 25 mg/kg/day

CCCCOC(=O)c1ccc(O)cc1 [Butylparaben]
LEL [10]: 1000 mg/kg/day | LOAEL [10]: > 1000 mg/kg/day | NEL [10]: 100 mg/kg/day | NOAEL [10]: ≥ 1000 mg/kg/day | LEL [11, 20]: 62.5 mg/kg/day | LOAEL [11, 20]: > 1000 mg/kg/day | NEL [11, 20]: < 62.5 mg/kg/day | NOAEL [11, 20]: ≥ 1000 mg/kg/day | LOAEL [11, 21]: > 1000 mg/kg/day | NOAEL [11, 21]: ≥ 1000 mg/kg/day | LEL [11, 22]: 62.5 mg/kg/day | NEL [11, 22]: < 62.5 mg/kg/day
